# Test results reported in PubChem BioAssay AID1963982 (Molecular Pharmacology Branch, DTP, NCI, 2024).
# Test system: 313798-341-R-J2-PDC spheroids, viability
# Assay: Anticancer human tumor 313798-341-R-J2-PDC patient-derived cervical squamous cell carcinoma cell line growth inhibition [PI3K]
# Conditions: spheroids with HUVEC and MSC; for IC50: curve of first compound; for viability, T/C: stronger effect = lower value
# Description: Combinatorial screen of targeted agents with the PI3K inhibitors inavolisib, alpelisib, duvelisib, and copanlisib in multi-cell type tumor spheroids
# A high-throughput screen of multi-cell type tumor spheroids was designed to identify active combinations of targeted small molecules and PI3K pathway inhibitors. Complex spheroids include a stromal component modeled by human endothelial cells (HUVEC) and fibroblasts modeled by human mesenchymal stem cells (MSCs). The concentration ranges selected for each drug and investigational agent were based upon clinically achievable concentrations if the clinical Cmax of the agent was known.
# Compounds. The drugs and investigational agents: inavolisib (NSC800729), alpelisib (NSC765974), duvelisib (NSC772469), copanlisib (NSC816437), ipatasertib (NSC767898), afuresertib (NSC778305), talazoparib (NSC767125), sapanisertib (NSC764658), selumetinib (NSC741078), tovorafenib (DAY101, NSC766906), vemurafenib (NSC761431), ravoxertinib (NSC781343), sotorasib (NSC818433), MRTX1133 (NSC 836407), abemaciclib (NSC 768073), palbociclib (NSC758247), venetoclax (NSC 766270), SY5609 (NSC837396), enzalutamide (NSC755605), and darolutamide (NSC825331), were obtained from the National Cancer Institute (NCI) Developmental Therapeutics Program Chemical Repository. The FDA-approved anticancer drug set is available from the NCI Developmental Therapeutics Program. […] The stock solutions were prepared in dimethyl sulfoxide (DMSO, Sigma-Aldrich, St. Louis, MO, cat. D2650) at 800-fold the tested concentration and stored at -70 degrees C prior to their use. All drugs and investigational agents were tested over a range starting from a high concentration at or near the clinical Cmax and decreasing in half-log increments. If the clinical Cmax for an agent had not been determined, the highest concentration tested was 10 microM.
# Cell Culture. All cells were maintained in an incubator at 37 degrees C and 5% CO2 with 95% humidity. The PDC lines were cultured according to standard operating procedures established by the NCI PDMR (https://pdmr.cancer.gov/sops/default.htm). All PDCs were thawed and cultured in Matrigel-coated flasks prepared with a working solution of 1X Ham's F-12 nutrient mix, without supplementation (Invitrogen, Waltham, MA, cat. 11765054), 100 U/mL penicillin-streptomycin (Invitrogen, cat. 15140122), and 2.5% Matrigel (Corning Inc., Corning, NY, cat. 354248) for the first three passages. The 354836-022-R-J1-PDC, 475296-252-R-J1-PDC, and 997726-040-R-J2-PDC lines were cultured in 6A media, which includes advanced DMEM/F-12 (Thermo Fisher Scientific, cat. 12634028), 10 mM HEPES (Thermo Fisher Scientific, cat. 15630080), 1X GlutaMAX supplement (Thermo Fisher Scientific, cat. 35050061), 0.1 mg/mL primocin (InvivoGen, San Diego, CA, cat. ant-pm-2), 10% defined fetal bovine serum, heat inactivated (HyClone Laboratories Inc., Logan, UT, cat. SH30070.03HI), 50% L-WRN conditioned media (ATCC, cat. CRL-3276), 1.25 mM N-Acetyl-L-cysteine (Sigma-Aldrich, cat. A9165), 10 mM nicotinamide (Sigma-Aldrich, cat. N0636), 1X B-27 supplement (Thermo Fisher Scientific, cat. 17504044), 1X N-2 supplement (Thermo Fisher Scientific, cat. 17502048), and 10 microM Y-27632 dihydrochloride (Tocris Bioscience, Bristol, United Kingdom, cat. 1254). The 624824-186-R-J2-PDC line was cultured in 6C/Colon 1B media, which includes all 6A media components plus 50 ng/mL human EGF recombinant protein (Thermo Fisher Scientific, cat. PHG0311). […]
# 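Also: spheroids exposed to compounds for seven days.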
# 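For viability, T/C in this document: 100% = DMSO vehicle control viability.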
smiles,measurement,setting,value
CC(C)NCC(C(=O)N1CCN(c2ncnc3c2C(C)CC3O)CC1)c1ccc(Cl)cc1 (configuration not stated) + CC(Nc1ncnc2nc[nH]c12)c1cc2cccc(Cl)c2c(=O)n1-c1ccccc1,IC50,second compound 0.0316 µM,1610 nM
same,IC50,second compound 0.1 µM,1870 nM
same,IC50,second compound 0.316 µM,1720 nM
same,IC50,second compound 1 µM,1800 nM
same,IC50,second compound 3.16 µM,1880 nM
same,IC50,second compound 10 µM,1410 nM
same,"viability, T/C","second compound 0.0316 µM, first compound 0.0316 µM",114%
same,"viability, T/C","second compound 0.0316 µM, first compound 0.1 µM",91.3%
same,"viability, T/C","second compound 0.0316 µM, first compound 0.316 µM",81.7%
same,"viability, T/C","second compound 0.0316 µM, first compound 1 µM",54%
same,"viability, T/C","second compound 0.0316 µM, first compound 3.16 µM",40.1%
same,"viability, T/C","second compound 0.0316 µM, first compound 10 µM",29.6%
same,"viability, T/C","second compound 0.1 µM, first compound 0.0316 µM",102%
same,"viability, T/C","second compound 0.1 µM, first compound 0.1 µM",103%
same,"viability, T/C","second compound 0.1 µM, first compound 0.316 µM",90.2%
same,"viability, T/C","second compound 0.1 µM, first compound 1 µM",65.2%
same,"viability, T/C","second compound 0.1 µM, first compound 3.16 µM",36.9%
same,"viability, T/C","second compound 0.1 µM, first compound 10 µM",30.5%
same,"viability, T/C","second compound 0.316 µM, first compound 0.0316 µM",94%
same,"viability, T/C","second compound 0.316 µM, first compound 0.1 µM",100%
same,"viability, T/C","second compound 0.316 µM, first compound 0.316 µM",84.2%
same,"viability, T/C","second compound 0.316 µM, first compound 1 µM",62%
same,"viability, T/C","second compound 0.316 µM, first compound 3.16 µM",36.9%
same,"viability, T/C","second compound 0.316 µM, first compound 10 µM",30%
same,"viability, T/C","second compound 1 µM, first compound 0.0316 µM",97.3%
same,"viability, T/C","second compound 1 µM, first compound 0.1 µM",100%
same,"viability, T/C","second compound 1 µM, first compound 0.316 µM",89.9%
same,"viability, T/C","second compound 1 µM, first compound 1 µM",57.5%
same,"viability, T/C","second compound 1 µM, first compound 3.16 µM",44.2%
same,"viability, T/C","second compound 1 µM, first compound 10 µM",26.9%
same,"viability, T/C","second compound 3.16 µM, first compound 0.0316 µM",96.7%
same,"viability, T/C","second compound 3.16 µM, first compound 0.1 µM",87.4%
same,"viability, T/C","second compound 3.16 µM, first compound 0.316 µM",89.8%
same,"viability, T/C","second compound 3.16 µM, first compound 1 µM",63.2%
same,"viability, T/C","second compound 3.16 µM, first compound 3.16 µM",39.1%
same,"viability, T/C","second compound 3.16 µM, first compound 10 µM",26.7%
same,"viability, T/C","second compound 10 µM, first compound 0.0316 µM",91.3%
same,"viability, T/C","second compound 10 µM, first compound 0.1 µM",86.3%
same,"viability, T/C","second compound 10 µM, first compound 0.316 µM",75.9%
same,"viability, T/C","second compound 10 µM, first compound 1 µM",53.7%
same,"viability, T/C","second compound 10 µM, first compound 3.16 µM",39%
same,"viability, T/C","second compound 10 µM, first compound 10 µM",27.1%
